One data set concerns Rubeola virus. Kind of data set: Antiviral effect against Rubeola virus at concentrations of CT0 (reduction of TCID50 virus titer). To be noted: RK-13 cell cultures, log TCID50 difference of control and test compound. It counts as cell-based, Rubeola virus (strain Judith).
A further data set in a line: in vitro. It counts as cell-based. The procedure: The antiviral testing of the compounds was carried out in two steps. First the dose-response curve of cytotoxicity was plotted, then the antiviral activity was assayed in cell cultures containing nontoxic amounts of the compound.
1. The cytotoxicity of the compounds was assayed in HeLa and RK-13 cell cultures by quantitating the protein content of the cells [S. Horvath: Cytotoxicity of drugs and diverse chemical agents to cell cultures, Toxicology, 16, 59 (1980)]. From the data of the dose-response curve the 50 percent cytotoxic concentration of the compounds was determined (CT50), i.e. the concentration inhibiting cell proliferation by 50 percent. Similarly from the data of the dose-response curve the highest concentration of the compounds where cell proliferation compared to the control is not inhibited at all, can be determined, too (0 percent cytotoxic concentration, CT0). To simplify matters, in the Table the logarithm of these values is summarized (i.e. log CT0 =1 representing a concentration of 10 μg/ml).

Data set [1] can be described thus: Oral toxicity (LD50) in rats. The following applies: rat, in vivo.

SMILES strings stand for the structures. ≈ marks a conversion by molar mass, not a printed value.

On to `CSc1n[nH]c(NC(=O)c2ccccc2[N+](=O)[O-])n1` [Example 61, 3-methylthio-5-(2-nitro-benzoyl-amino)-1H-1,2,4-triazole], for which the “Δlog TCID50” value with Rubeola virus was determined as 3.0. Also, in the data set “in vitro” (human, hela cells), the CC50 – broadly, the concentration giving 50% cytotoxicity – is 39.8 µg/mL (≈ 143 µM) and the MNTC came out at 10 µg/mL. In the data set “in vitro” (rabbit, rk-13 cells), this molecule showed a CC50 of 63.1 µg/mL (≈ 226 µM) and an MNTC of 15.8 µg/mL.
`CSc1n[nH]c(NC(=O)c2ccccc2Br)n1` [Example 53, 3-methylthio-5-(2-bromo-benzoyl-amino)-1H-1,2,4-triazole]: the “Δlog TCID50” value with Rubeola virus is at least 6.8. For the same molecule, in the data set “in vitro” (human, hela cells), the CC50 is 126 µg/mL (≈ 402 µM) and the MNTC is 39.8 µg/mL. In addition, in “in vitro” (rabbit, rk-13 cells), the midpoint of cytotoxicity, the CC50, lay at 79.4 µg/mL (≈ 254 µM) and the MNTC was 25.1 µg/mL.
Taken in the same sequence, the figures for `CSc1n[nH]c(NC(=O)c2ccccc2SC)n1` [Example 70, 3-methylthio-5-(2-methylthio-benzoyl-amino)-1H-1,2,4-triazole] were at least 5.3, 79.4 µg/mL (≈ 283 µM), 20 µg/mL, 50.1 µg/mL (≈ 179 µM) and 15.8 µg/mL.
Taken in the same sequence, the figures for `CSc1n[nH]c(NC(=O)c2ccccc2Cl)n1` [Example 63, 3-methylthio-5-(2-chloro-benzoyl-amino)-1H-1,2,4-triazole] were at least 5.3, 50.1 µg/mL (≈ 187 µM), 7.94 µg/mL, 79.4 µg/mL (≈ 296 µM) and 15.8 µg/mL.
For the molecule `CCSc1n[nH]c(NC(=O)c2ccccc2C)n1` [Example 73, 3-ethylthio-5-(2-methyl-benzoyl-amino)-1H-1,2,4-triazole], the “Δlog TCID50” value with Rubeola virus is reported as at least 6.0. In the data set “in vitro” (human, hela cells), this molecule gave a half-maximal cytotoxic concentration (CC50) of 50.1 µg/mL (≈ 191 µM) and an MNTC of 7.94 µg/mL.
Take `CSc1n[nH]c(NC(=O)c2ccccc2C)n1` [Example 47, 3-methylthio-5-(2-methyl-benzoyl-amino)-1H-1,2,4-triazole]: the “Δlog TCID50” value in the data set with Rubeola virus is on record as at least 6.8. The LD50 (usually the dose at which mortality reaches 50%) in data set [1] was determined as 3200 mg/kg. In addition, in “in vitro” (human, hela cells), half-maximal cytotoxicity (CC50) was put at 100 µg/mL (≈ 403 µM) and the MNTC was 39.8 µg/mL. Moreover, in the data set “in vitro” (rabbit, rk-13 cells), the CC50 is 79.4 µg/mL (≈ 320 µM) and the MNTC was 12.6 µg/mL.

The values are drawn from patent publication US4537899A, “Antiviral acylated 1,2,4-triazole derivatives” (BIOGAL Gyogyszergyar, priority 1982, dated 1985).
